Measured values: US10556883B2, “Benzenesulfonamide compounds, method for synthesizing same, and use thereof in medicine and cosmetics” (GALDERMA RESEARCH & DEVELOPMENT, priority 2016, dated 2020)

Key:
TACE enzyme = TACE enzyme (Homo sapiens (Human), UniProt P78536); conditions: WO 00/44709, page 251, table 10, example 61; cited from earlier work
[1] = system: TNFα secretion from LPS stimulated frozen Peripheral Blood Mononuclear Cells (PBMC); test: inhibition of TNFα secretion from LPS stimulated human PBMC (hPBMC assay); format: cell-based; conditions: LPS 1 μg/mL, overnight incubation, TNFα by HTRF
Experimental: Activity of the compounds was investigated using human peripheral blood mononuclear cells (hPBMC). This assay was designed to measure the inhibition of the TNFα secretion from LPS stimulated frozen Peripheral Blood Mononuclear Cells (PBMC) isolated from human blood. TNFα levels were measured using HTRF® Human TNFα kit (Cisbio #62TNFPEC) which is a rapid and quantitative sandwich immunoassay based on TR-FRET technology.
Frozen PBMC were quickly thawed, resuspended in culture medium (RPMI 10% inactivated FBS) and viable cells were seeded in 96-well plates (50,000 cells/well). […] After overnight incubation at 37° C., 10 μL of cell supernatant were mixed with 5 μL of each tagged anti-TNFα specific antibody as recommended by the supplier. After 2 hours of incubation at room temperature, the HTRF® signals were measured using a microplate reader (wavelengths: excitation=337 nm, first emission=620 nm, second emission=665 nm).

[2] = target: Recombinant Human catalytic domains of MMP1 (Homo sapiens (Human), UniProt P03956); test: MMP1 isolated enzyme assay, profluorescent peptidic substrate; format: biochemical; conditions: 10 minutes incubation at room temperature; read-out: MMP1 enz IC50
Recombinant Human catalytic domains of MMP1, sequence (P03956 98-276): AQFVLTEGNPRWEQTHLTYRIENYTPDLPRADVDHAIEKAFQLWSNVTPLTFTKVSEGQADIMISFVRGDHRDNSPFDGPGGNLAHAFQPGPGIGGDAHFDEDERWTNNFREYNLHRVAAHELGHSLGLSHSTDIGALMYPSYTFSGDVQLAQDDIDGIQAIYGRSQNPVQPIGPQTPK
Source text: Activity of the compounds was investigated using MMP1 isolated enzyme.

[3] = target: Recombinant Human ADAM17 catalytic domain (Homo sapiens (Human), UniProt P78536); test: TACE (ADAM17) isolated enzyme assay, profluorescent peptidic substrate; conditions: read-out: TACE enz IC50; ADAM17 catalytic domain 500 nM, 40 μM substrate, two hours
Recombinant Human ADAM17 catalytic domain, sequence (P78536 223-474): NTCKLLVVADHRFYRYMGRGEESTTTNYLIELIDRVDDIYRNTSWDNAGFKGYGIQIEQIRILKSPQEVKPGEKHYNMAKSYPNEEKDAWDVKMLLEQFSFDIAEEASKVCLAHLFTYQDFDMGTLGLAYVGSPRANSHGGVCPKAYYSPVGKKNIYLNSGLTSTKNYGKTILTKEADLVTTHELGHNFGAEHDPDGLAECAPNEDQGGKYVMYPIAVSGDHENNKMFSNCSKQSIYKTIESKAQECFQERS
Experimental: Activity of the compounds was investigated using TACE (ADAM17) isolated enzyme. […] Mca fluorescence was quenched by the Dpa group until cleavage by ADAM17 at the Ala-Val bond separates the two moieties.
The enzymatic reaction was performed in 384-well microplates with a final volume of 10 μL containing 1% DMSO. Recombinant Human ADAM17 catalytic domain (500 nM) was assayed with 40 μM of substrate and serial dilutions of tested inhibitors (from 10000 nM to 0.04 nM). After two hours of incubation at room temperature, the fluorescence was measured using a microplate reader (320/425 nm).
Data were normalized using the average of positive controls (enzyme with no inhibitor) and negative controls (no enzyme). IC50 were calculated using a four-parameters logistic model.

TACE enzyme, sequence (P78536 215-824): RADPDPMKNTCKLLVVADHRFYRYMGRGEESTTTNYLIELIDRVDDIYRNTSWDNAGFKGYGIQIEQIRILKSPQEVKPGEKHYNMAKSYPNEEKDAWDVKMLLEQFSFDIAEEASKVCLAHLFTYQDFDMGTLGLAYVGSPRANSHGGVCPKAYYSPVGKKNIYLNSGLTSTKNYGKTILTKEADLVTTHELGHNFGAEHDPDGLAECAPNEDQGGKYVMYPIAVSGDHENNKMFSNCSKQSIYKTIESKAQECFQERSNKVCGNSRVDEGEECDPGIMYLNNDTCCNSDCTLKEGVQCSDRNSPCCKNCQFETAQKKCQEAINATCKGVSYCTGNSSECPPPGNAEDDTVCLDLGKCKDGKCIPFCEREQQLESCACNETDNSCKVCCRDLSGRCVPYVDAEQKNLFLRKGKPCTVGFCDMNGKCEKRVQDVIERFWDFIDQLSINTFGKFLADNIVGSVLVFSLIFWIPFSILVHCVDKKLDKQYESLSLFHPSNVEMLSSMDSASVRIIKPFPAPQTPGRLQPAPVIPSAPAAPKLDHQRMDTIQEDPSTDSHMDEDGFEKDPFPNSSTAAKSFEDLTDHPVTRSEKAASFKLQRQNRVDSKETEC

Compound | selectivity for the TACE enzyme compared with certain MMPs (TACE enzyme) | IC50 [1] | IC50 [2] | IC50 [3]
CC1(C)SCCN(S(=O)(=O)c2ccc(OCC#CCO)cc2)[C@H]1C(=O)NO [Apratastat] | not selective |  |  | 
Cc1cc(COc2ccc(S(=O)(=O)NC3(C(=O)NO)CN(C(=O)C(C)C)C3)cc2)c2ccccc2n1 [Example 7b, N-hydroxy-1-isobutyryl-3-((4-((2-methylquinolin-4-yl)methoxy)phenyl)sulfonamido)azetidine-3-carboxamide] |  | < 50 nM | > 10000 nM | 5.2 nM
Cc1cc(COc2ccc(S(=O)(=O)NC3(CC(=O)NO)CN(C(=O)N4CCN(C)CC4)C3)cc2)c2ccccc2n1 [Example 10, N-hydroxy-2-(1-(4-methylpiperazine-1-carbonyl)-3-((4-((2-methylquinolin-4-yl)methoxy)phenyl)sulfonamido)azetidin-3-yl)acetamide] |  | < 50 nM | > 10000 nM | 2.8 nM
Cc1cc(COc2ccc(S(=O)(=O)NC3(CC(=O)NO)CN(C(=O)CC(C)(C)C)C3)cc2)c2ccccc2n1 [Example 11, 2-(1-(3,3-dimethylbutanoyl)-3-((4-((2-methylquinolin-4-yl)methoxy)phenyl)sulfonamido)azetidin-3-yl)-N-hydroxyacetamide] |  | < 50 nM | > 10000 nM | 8.2 nM
Cc1cc(COc2ccc(S(=O)(=O)NC3(CC(=O)NO)CN(C(=O)C(C)(C)N(C)C)C3)cc2)c2ccccc2n1 [Example 18, 2-(1-(2-(dimethylamino)-2-methylpropanoyl)-3-((4-((2-methylquinolin-4-yl)methoxy)phenyl)sulfonamido)azetidin-3-yl)-N-hydroxyacetamide] |  | < 50 nM | > 10000 nM | 3.5 nM
Cc1cc(COc2ccc(S(=O)(=O)NC3(C(=O)NO)CN(C(=O)CC4CCC4)C3)cc2)c2ccccc2n1 [Example 26f, 1-(2-cyclobutylacetyl)-N-hydroxy-3-((4-((2-methylquinolin-4-yl)methoxy)phenyl)sulfonamido)azetidine-3-carboxamide] |  | < 50 nM | > 10000 nM | 11.4 nM
CCN1CCN(C(=O)N2CC(CC(=O)NO)(NS(=O)(=O)c3ccc(OCc4cc(C)nc5ccccc45)cc3)C2)CC1 [Example 28b, 2-(1-(4-ethylpiperazine-1-carbonyl)-3-((4-((2-methylquinolin-4-yl)methoxy)phenyl)sulfonamido)azetidin-3-yl)-N-hydroxyacetamide] |  | < 50 nM | > 10000 nM | 5.6 nM
